Like-named read-outs stand apart in the source and are kept apart here.
Legend:
Format in all cases: cell-based
viable cells in culture = test: Cell viability assay at 10 μM (CellTiter-Glo, Table VII); conditions: compound 10 μM, 72 h;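 note: graded A 0-20%; B 21-40%; C 41-60%; D over 60% viable cells relative to DMSO control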
In short: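 Viable cell number was measured with the CellTiter-Glo Luminescent Cell Viability Assay (Promega), following the manufacturer's protocol, which quantifies ATP as a marker of metabolically active cells. In 96-well plates, 1000 cells/well in 100 μl medium were exposed to compound at 10 μM, or to DMSO control, for 72 h. Values were calculated relative to DMSO-control ATP.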

Hs578T [1] = test: Wound healing migration assay; conditions: Homo sapiens, Hs-578T; HS578T cell line; Table Ib
In short: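 Cells seeded at 150000/24 well, grown to monolayer overnight, scratched with a pipette tip, then treated with compound at 12.5, 6.25 or 3.125 μM versus DMSO. Stopped by crystal violet fixation at 48-72 h once control wounds closed; IC50 taken as 50% wound size between t0 and t48 or t72.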

U138 = test: Apoptosis assay (Cellomics, nucleus condensation); conditions: Table III, read-out: Apoptosis induction in U138
In short: (§1)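 Cells seeded at 5000 per well were stained live with Hoechst 33342, and nuclear condensation was quantified per nucleus by automated fluorescence imaging alongside cell counts. Compound was tested at 12.5, 6.25, 3.125, 1.56, 0.78 and 0.39 μM against a DMSO control, with reads at 24 h and 48 h.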

SF763 = test: Apoptosis assay (Cellomics, nucleus condensation); conditions: Table III, read-out: Apoptosis induction in SF763
In short: as §1

SF126 = test: Apoptosis assay (Cellomics, nucleus condensation); conditions: Homo sapiens, SF-126, Table III, read-out: Apoptosis induction in SF126
In short: as §1

Hs578T [2] = test: Apoptosis assay (Cellomics, nucleus condensation); conditions: Homo sapiens, Hs-578T, Table III, read-out: Apoptosis induction in Hs578T
In short: as §1

C8161 = test: Apoptosis assay (Cellomics, nucleus condensation); conditions: Homo sapiens, Table III, read-out: Apoptosis induction in C8161
In short: as §1

cells = test: Boyden chamber migration assay (Table VI); conditions: Homo sapiens, Hs-578T, 16 h, Hs578T cells; 16 h migration
In short: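 20000 cells seeded in the upper compartment in 0% FCS plus 0.1% BSA and left 16 h to migrate through […] membrane toward 10% FCS medium below. Non-migrated cells swabbed off; cells on the filter underside fixed and counted.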

tumor cell = test: Matrigel outgrowth assay/branching assay (Table Va)
In short: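 Step one: Matrigel (3 mg/ml) is set for 1 h at 37° C. Step two: 5000 cells per well go on in medium with compound (0.78–3.125 μM) or DMSO. Step three: images at 48, 72 and 96 h are scored for complete loss of branching.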

[3] = Homo sapiens, HCT-116, HCT116 def, read-out: percentage (%) of viable cells HCT 116def
[4] = Homo sapiens, HCT-116, HCT116 wt, read-out: percentage (%) of viable cells HCT 116wt
[5] = Homo sapiens, HT-29, HT29, read-out: percentage (%) of viable cells HT29
[6] = Homo sapiens, NCI-H358, H358, read-out: percentage (%) of viable cells H358
[7] = Homo sapiens, NCI-H1650, H1650, read-out: percentage (%) of viable cells H1650
[8] = Homo sapiens, NCI-H1666, H1666, read-out: percentage (%) of viable cells H1666
[9] = Homo sapiens, NCI-H1975, H1975, read-out: percentage (%) of viable cells H1975
[10] = Homo sapiens, NCI-H1993, H1993, read-out: percentage (%) of viable cells H1993
[11] = Homo sapiens, A549, read-out: percentage (%) of viable cells A549
[12] = Homo sapiens, HCC827, read-out: percentage (%) of viable cells HCC827
[13] = Homo sapiens, SW480, read-out: percentage (%) of viable cells SW480
[14] = RKO, read-out: percentage (%) of viable cells RKO
[15] = Homo sapiens, C8161 cells, read-out: Total branching inhibition in Matrigel C8161
[16] = Homo sapiens, Hs-578T, Hs578T cells, read-out: Total branching inhibition in Matrigel Hs578T
[17] = U118 cells, read-out: Total branching inhibition in Matrigel U118
[18] = U138 cells, read-out: Total branching inhibition in Matrigel U138

Row | SMILES | IC50 (Hs578T [1]) [µM] | IC50 (U138) [µM] | IC50 (SF763) [µM] | IC50 (SF126) [µM] | IC50 (Hs578T [2]) [µM] | IC50 (C8161) [µM] | IC50 (cells) [µM] | IC50 (tumor cell; [15]) [µM] | viability at 10 µM (viable cells in culture; [3]) [%] | viability at 10 µM (viable cells in culture; [4]) [%] | viability at 10 µM (viable cells in culture; [5]) [%] | viability at 10 µM (viable cells in culture; [6]) [%] | viability at 10 µM (viable cells in culture; [7]) [%] | viability at 10 µM (viable cells in culture; [8]) [%] | viability at 10 µM (viable cells in culture; [9]) [%] | viability at 10 µM (viable cells in culture; [10]) [%] | viability at 10 µM (viable cells in culture; [11]) [%] | viability at 10 µM (viable cells in culture; [12]) [%] | viability at 10 µM (viable cells in culture; [13]) [%] | viability at 10 µM (viable cells in culture; [14]) [%] | further results
1 | COc1cc2c(Oc3ccc(NS(=O)(=O)c4ccccc4F)cc3F)ccnc2cc1OCCN1CCOCC1 [Example 81, 2-Fluoro-N-{3-fluoro-4-[6-methoxy-7-(2-morpholin-4-yl-ethoxy)-quinolin-4-yloxy]-phenyl}-benzenesulfonamide] | 12.5 to 50 | ≤ 12.5 | ≤ 12.5 | ≤ 12.5 | ≤ 12.5 | ≤ 12.5 | ≤ 5 | ≤ 5 | 21 to 40 | 21 to 40 | 21 to 40 | 0 to 20 | 21 to 40 | 21 to 40 | 0 to 20 | 21 to 40 | 41 to 60 | 0 to 20 | 0 to 20 | 41 to 60 | IC50 (tumor cell; [16]): ≤ 5 µM; IC50 (tumor cell; [17]): 5 to 50 µM; IC50 (tumor cell; [18]): 5 to 50 µM
2 | COc1cc2c(Oc3ccc(NS(=O)(=O)c4cccc(Oc5ccccc5)c4)cc3F)ccnc2cc1OCCCN1CCCC(C)C1 (centres unmarked) [Example 59, N-(3-Fluoro-4-{6-methoxy-7-[3-(3-methyl-piperidin-1-yl)-propoxy]-quinolin-4-yloxy}-phenyl)-3-phenoxy-benzenesulfonamide] | ≤ 12.5 | ≤ 12.5 | ≤ 12.5 | ≤ 12.5 | ≤ 12.5 | ≤ 12.5 | ≤ 5 | ≤ 5 | 0 to 20 | 0 to 20 | 0 to 20 | 21 to 40 | > 60 | 41 to 60 | 21 to 40 | 0 to 20 | 21 to 40 | 21 to 40 | 0 to 20 | 0 to 20 | IC50 (tumor cell; [16]): ≤ 5 µM; IC50 (tumor cell; [17]): 5 to 50 µM; IC50 (tumor cell; [18]): ≤ 5 µM
3 | COc1cc2c(Oc3ccc(NS(=O)(=O)c4c(F)cccc4F)cc3F)ccnc2cc1OCCN1CCOCC1 [Example 82, 2,6-Difluoro-N-{3-fluoro-4-[6-methoxy-7-(2-morpholin-4-yl-ethoxy)-quinolin-4-yloxy]-phenyl}-benzenesulfonamide] | 12.5 to 50 | ≤ 12.5 | ≤ 12.5 | ≤ 12.5 | ≤ 12.5 | ≤ 12.5 | 5 to 50 | 5 to 50 | 21 to 40 | 0 to 20 | 0 to 20 | 21 to 40 | 21 to 40 | 41 to 60 | 21 to 40 | 0 to 20 | > 60 | 21 to 40 | 21 to 40 | 41 to 60 | IC50 (tumor cell; [16]): ≤ 5 µM; IC50 (tumor cell; [17]): ≤ 5 µM; IC50 (tumor cell; [18]): 5 to 50 µM
4 | COc1cc2c(Oc3ccc(NS(=O)(=O)c4ccc(F)c(Cl)c4)cc3F)ccnc2cc1OCCCN1CCCC(C)C1 (centres unmarked) [Example 57, 3-Chloro-4-fluoro-N-(3-fluoro-4-{6-methoxy-7-[3-(3-methyl-piperidin-1-yl)-propoxy]-quinolin-4-yloxy}-phenyl)-benzenesulfonamide] | ≤ 12.5 | ≤ 12.5 | 12.5 to 50 | ≤ 12.5 | ≤ 12.5 | ≤ 12.5 | 5 to 50 | 5 to 50 | 21 to 40 | > 60 | 0 to 20 | 21 to 40 | 41 to 60 | 41 to 60 | 0 to 20 | 21 to 40 | > 60 | > 60 | 0 to 20 | 0 to 20 | IC50 (tumor cell; [16]): ≤ 5 µM; IC50 (tumor cell; [17]): ≤ 5 µM; IC50 (tumor cell; [18]): ≤ 5 µM

Second part, led by results:

Row | IC50 (Hs578T [1]) [µM] | IC50 (U138) [µM] | IC50 (SF763) [µM] | IC50 (SF126) [µM] | IC50 (Hs578T [2]) [µM] | IC50 (C8161) [µM] | IC50 (cells) [µM] | IC50 (tumor cell; [15]) [µM] | SMILES | viability at 10 µM (viable cells in culture; [3]) [%] | viability at 10 µM (viable cells in culture; [4]) [%] | viability at 10 µM (viable cells in culture; [5]) [%] | viability at 10 µM (viable cells in culture; [6]) [%] | viability at 10 µM (viable cells in culture; [7]) [%] | viability at 10 µM (viable cells in culture; [8]) [%] | viability at 10 µM (viable cells in culture; [9]) [%] | viability at 10 µM (viable cells in culture; [10]) [%] | viability at 10 µM (viable cells in culture; [11]) [%] | viability at 10 µM (viable cells in culture; [12]) [%] | viability at 10 µM (viable cells in culture; [13]) [%] | viability at 10 µM (viable cells in culture; [14]) [%] | further results
5 | ≤ 12.5 | ≤ 12.5 | ≤ 12.5 | ≤ 12.5 | ≤ 12.5 | ≤ 12.5 | ≤ 5 | ≤ 5 | COc1cc2c(Oc3cccc(NS(=O)(=O)c4ccccc4C(F)(F)F)c3)ccnc2cc1OCCCN1CCN(C)CC1 [Example 102, N-(3-{6-Methoxy-7-[3-(4-methyl-piperazin-1-yl)-propoxy]-quinolin-4-yloxy}-phenyl)-2-trifluoromethyl-benzenesulfonamide] | 0 to 20 | 0 to 20 | 0 to 20 | 0 to 20 | 41 to 60 | 41 to 60 | 21 to 40 | 21 to 40 | 41 to 60 | 21 to 40 | 0 to 20 | 21 to 40 | IC50 (tumor cell; [16]): ≤ 5 µM; IC50 (tumor cell; [17]): ≤ 5 µM; IC50 (tumor cell; [18]): 5 to 50 µM
6 | ≤ 12.5 | ≤ 12.5 | ≤ 12.5 | ≤ 12.5 | ≤ 12.5 | ≤ 12.5 | ≤ 5 | ≤ 5 | COc1cc2c(Oc3ccc(NS(=O)(=O)c4cc(C)ccc4F)cc3F)ccnc2cc1OCCCN1CCCC(C)C1 (centres unmarked) [Example 55] | 21 to 40 | 0 to 20 | 21 to 40 | 0 to 20 | 0 to 20 | 0 to 20 | > 60 | 0 to 20 | 21 to 40 | 41 to 60 | 21 to 40 | 41 to 60 | IC50 (tumor cell; [16]): ≤ 5 µM; IC50 (tumor cell; [17]): ≤ 5 µM; IC50 (tumor cell; [18]): 5 to 50 µM
7 | ≤ 12.5 | ≤ 12.5 | ≤ 12.5 | ≤ 12.5 | 12.5 to 50 | ≤ 12.5 | ≤ 5 | ≤ 5 | COc1cc2c(Oc3ccc(NS(=O)(=O)c4cccc5ccccc45)cc3F)ccnc2cc1OCCCN1CCCC(C)C1 (centres unmarked) [Example 58, Naphthalene-1-sulfonic acid (3-fluoro-4-{6-methoxy-7-[3-(3-methyl-piperidin-1-yl)-propoxy]-quinolin-4-yloxy}-phenyl)-amide] | 21 to 40 | 0 to 20 | 0 to 20 | 21 to 40 | > 60 | 21 to 40 | 0 to 20 | 41 to 60 | 41 to 60 | > 60 | 0 to 20 | 0 to 20 | IC50 (tumor cell; [16]): ≤ 5 µM; IC50 (tumor cell; [17]): ≤ 5 µM; IC50 (tumor cell; [18]): 5 to 50 µM

— patent US9169241B2, “Quinolinyloxyphenylsulfonamides” (Max-Planck-Gesellschaft Zur Forderung der Wissenschaften …, priority 2009, dated 2015)
